The values that follow come from the supplement of paper PMC8149375.

Details in all cases: treatment: drug alone; 5 days
Experiment [1] relates to CAKI-1. Briefly: minimum viability across doses, drug alone, relative to DMSO (fraction); higher = less growth inhibition. On the procedure: (§1)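 Primary HTS: 8 RCC cell lines treated with 8 doses (up to 10 uM) of each library drug alone for 5 days; viability read by CellTiter-Glo and normalised to DMSO. GI50 was fitted with XLfit (4-parameter), AUC is the area under the dose-response curve, and minimum viability is the lowest fraction of DMSO viability across doses.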

The test system of experiment [2] is SN12C. The description is as above. On the procedure:
as §1

Experiment [3] relates to ACHN. Described as above. On the procedure: as §1
In experiment [4] the test system is TK-10. The experiment is described as above. On the procedure:
as §1

Experiment [5] has as its system 769-P. The experiment is described as above. On the procedure: as §1
Experiment [6] concerns A498. Described as above. On the procedure:
as §1

The test system of experiment [7] is 786-O. Described as above. On the procedure: as §1
Experiment [8] relates to UO-31. Described as above. On the procedure: as §1
For experiment [9], the system named is CAKI-1. As to the kind of experiment: AUC of dose-response viability curve, drug alone (arbitrary (AUC of normalised viability)); higher = less growth inhibition. On the procedure:
as §1

Experiment [10] deals with SN12C. The experiment is described as above. On the procedure: as §1
The test system of experiment [11] is ACHN. Described as above. On the procedure: as §1
The test system of experiment [12] is TK-10. Described as above. On the procedure: as §1
The subject of experiment [13] is 769-P. The description is as above. On the procedure:
as §1

For experiment [14], the system named is A498. Described as above. On the procedure:
as §1

In experiment [15] the test system is 786-O. Described as above. On the procedure: as §1
Experiment [16] deals with UO-31. Described as above. On the procedure: as §1
In experiment [17] the test system is CAKI-1. Briefly: GI50, drug alone; higher = less potent. On the procedure:
as §1

For experiment [18], the system named is SN12C. Briefly: GI50, drug alone; higher = less potent. On the procedure: as §1
Experiment [19] has as its system ACHN. Briefly: GI50, drug alone; higher = less potent. On the procedure: as §1
For experiment [20], the system named is TK-10. As to the kind of experiment: GI50, drug alone; higher = less potent. On the procedure:
as §1

The test system of experiment [21] is 769-P. Briefly: GI50, drug alone; higher = less potent. On the procedure: as §1
Experiment [22] has as its system A498. As to the kind of experiment: GI50, drug alone; higher = less potent. On the procedure:
as §1

Experiment [23] deals with 786-O. Briefly: GI50, drug alone; higher = less potent. On the procedure: as §1
Experiment [24] concerns UO-31. Briefly: GI50, drug alone; higher = less potent. On the procedure:
as §1

As for `Cc1cc(Nc2cc(N3CCN(C)CC3)nc(/C=C/c3ccccc3)n2)n[nH]1.O=C(O)[C@H](O)[C@@H](O)C(=O)O` [ENMD-2076], the “minimum viability across doses” value with CAKI-1 [1] is 0.038; in the experiment on SN12C [2] it was 0.162; in the experiment with ACHN [3], 0.109; with TK-10 [4], 0.146; in the experiment on 769-P [5] it was 0.227; in the experiment with A498 [6], 0.427. Moreover, the entries for the “minimum viability across doses” value in the experiment on 786-O [7] and in the experiment with UO-31 [8] were 0.0558 and 0.0165, respectively. Besides, the “AUC of dose-response viability curve” value in the experiment on CAKI-1 [9] was determined as 2.02; with SN12C [10], 2.46; in the experiment on ACHN [11], 2.1; in the experiment with TK-10 [12], 2.31; with 769-P [13], 2.64; in the experiment with A498 [14] it was 3.06. In addition, the “AUC of dose-response viability curve” value in the experiment with 786-O [15] turned out to be 1.82; with UO-31 [16] it was 3.01. Moreover, the “GI50, drug alone” value in the experiment with CAKI-1 [17] came to 456 nM; with SN12C [18], 1090 nM; in the experiment on ACHN [19], 344 nM; in the experiment with TK-10 [20], 1150 nM; in the experiment on 769-P [21], 2000 nM; with A498 [22], 4110 nM. Also, the results for the “GI50, drug alone” value in the experiment on 786-O [23] and in the experiment on UO-31 [24] were 518 nM and 1560 nM, respectively.
Take `CCc1cnn2c(NCc3ccc[n+]([O-])c3)cc(N3CCCC[C@H]3CCO)nc12`: the “minimum viability across doses” value stood at 0.0724 with CAKI-1 [1]; 0.0122 in the experiment with SN12C [2]; 0.011 with ACHN [3]; 0.128 in the experiment on TK-10 [4]; 0.0153 in the experiment on 769-P [5]; 0.00896 in the experiment with A498 [6]. For the same compound, the “minimum viability across doses” value in the experiment with 786-O [7] came to 0.00554; in the experiment with UO-31 [8], 0.0105. Besides, the “AUC of dose-response viability curve” value with CAKI-1 [9] came to 0.874; in the experiment with SN12C [10], 0.716; in the experiment on ACHN [11], 0.783; with TK-10 [12] it was 1.15; with 769-P [13], 1.04; with A498 [14], 0.65. Besides, the “AUC of dose-response viability curve” value turned out to be 0.398 in the experiment with 786-O [15] and 0.612 in the experiment with UO-31 [16]. Also, the “GI50, drug alone” value in the experiment on CAKI-1 [17] came out at 14.7 nM; in the experiment with SN12C [18], 14.7 nM; in the experiment on ACHN [19] it was 17 nM; in the experiment on TK-10 [20] it was 21.8 nM; in the experiment with 769-P [21], 29.8 nM; in the experiment on A498 [22] it was 13.6 nM. In addition, the figures for the “GI50, drug alone” value in the experiment with 786-O [23] and in the experiment on UO-31 [24] were 6.29 nM and 11 nM, respectively.
For the compound `CCn1nnc2c(N3CCOCC3)nc(-c3ccc(NC(=O)Nc4ccc(C(=O)N5CCN(C)CC5)cc4)cc3)nc21` [PKI-402], the “minimum viability across doses” value was found to be 0.0473 in the experiment with CAKI-1 [1]; 0.118 in the experiment on SN12C [2]; 0.0633 in the experiment on ACHN [3]; 0.0487 in the experiment with TK-10 [4]; 0.102 in the experiment on 769-P [5]; 0.156 in the experiment on A498 [6]. Also, the entries for the “minimum viability across doses” value in the experiment on 786-O [7] and with UO-31 [8] were 0.00561 and 0.0165, respectively. Moreover, the “AUC of dose-response viability curve” value in the experiment on CAKI-1 [9] turned out to be 1.91; in the experiment with SN12C [10], 1.66; in the experiment with ACHN [11], 1.89; in the experiment with TK-10 [12], 1.71; in the experiment with 769-P [13], 2.51; in the experiment with A498 [14] it was 2.25. Moreover, the “AUC of dose-response viability curve” value was 1.66 with 786-O [15] and 1.99 in the experiment with UO-31 [16]. In addition, the “GI50, drug alone” value in the experiment on CAKI-1 [17] was determined as 241 nM; with SN12C [18], 99.1 nM; in the experiment on ACHN [19], 224 nM; in the experiment with TK-10 [20], 179 nM; in the experiment with 769-P [21], 1140 nM; in the experiment on A498 [22], 165 nM. Moreover, the “GI50, drug alone” value in the experiment on 786-O [23] is 117 nM; in the experiment with UO-31 [24] it was 162 nM.
